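Compound exposure: 48 hours, 5 concentrations, 96-well plates. GI50: concentration for 50% inhibition of growth. TGI denotes the concentration required for complete inhibition of growth.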
Legend:
Assay in all cases: NCI-60 cell line screen, 48 h
SF-295 CNS = system: SF-295 CNS
HOP-92 NSCLC = system: HOP-92 NSCLC
U251 CNS = system: U251 CNS
NCI-H460 lung = system: NCI-H460 lung
A498 renal = system: A498 renal
MOLT-4 leukemia = system: MOLT-4 leukemia
NCI/ADR-RES ovarian = system: NCI/ADR-RES ovarian
SK-MEL-5 melanoma = system: SK-MEL-5 melanoma
SN12C renal = system: SN12C renal
HOP-62 NSCLC = system: HOP-62 NSCLC
UACC-62 melanoma = system: UACC-62 melanoma
CCRF-CEM leukemia = system: CCRF-CEM leukemia
RPMI-8226 leukemia = system: RPMI-8226 leukemia
HCC-2998 colon = system: HCC-2998 colon
MALME-3M melanoma = system: MALME-3M melanoma
MCF7 breast = system: MCF7 breast
UO-31 renal = system: UO-31 renal
UACC-257 melanoma = system: UACC-257 melanoma
HS 578T breast = system: HS 578T breast
SNB-75 CNS = system: SNB-75 CNS
SF-268 CNS = system: SF-268 CNS
ACHN renal = system: ACHN renal
SF-539 CNS = system: SF-539 CNS
PC-3 prostate = system: PC-3 prostate
A549 NSCLC = system: A549 NSCLC
LOX IMVI melanoma = system: LOX IMVI melanoma
OVCAR-4 ovarian = system: OVCAR-4 ovarian
SK-MEL-28 melanoma = system: SK-MEL-28 melanoma
HT29 colon = system: HT29 colon
HCT-15 colon = system: HCT-15 colon
MDA-MB-231 breast = system: MDA-MB-231 breast
K-562 leukemia = system: K-562 leukemia
RXF 393 renal = system: RXF 393 renal
EKVX NSCLC = system: EKVX NSCLC
NCI-H522 lung = system: NCI-H522 lung
TK-10 renal = system: TK-10 renal
SNB-19 CNS = system: SNB-19 CNS
OVCAR-8 ovarian = system: OVCAR-8 ovarian
BT-549 breast = system: BT-549 breast
OVCAR-5 ovarian = system: OVCAR-5 ovarian
COLO 205 colon = system: COLO 205 colon
HL-60(TB) leukemia = system: HL-60(TB) leukemia
M14 melanoma = system: M14 melanoma
SR leukemia = system: SR leukemia
DU-145 prostate = system: DU-145 prostate
HCT-116 colon = system: HCT-116 colon
SK-OV-3 ovarian = system: SK-OV-3 ovarian
CAKI-1 renal = system: CAKI-1 renal
MDA-MB-435 = system: MDA-MB-435
NCI-H23 lung = system: NCI-H23 lung
OVCAR-3 ovarian = system: OVCAR-3 ovarian
SK-MEL-2 melanoma = system: SK-MEL-2 melanoma
SW-620 colon = system: SW-620 colon
786-0 renal = system: 786-0 renal
T-47D breast = system: T-47D breast
NCI-H226 lung = system: NCI-H226 lung
KM12 colon = system: KM12 colon
IGROV1 ovarian = system: IGROV1 ovarian

COc1cccc(-n2ncc3c(N/N=C/c4cccc(F)c4)ncnc32)c1
GI50 (SF-295 CNS): 8.19 µM
TGI (SF-295 CNS): > 17.6 µM
GI50 (HOP-92 NSCLC): 5.59 µM
TGI (HOP-92 NSCLC): 14.2 µM
GI50 (U251 CNS): 4.66 µM
TGI (U251 CNS): 9.04 µM
GI50 (NCI-H460 lung): 6.05 µM
TGI (NCI-H460 lung): 12.8 µM
GI50 (A498 renal): 5.13 µM
TGI (A498 renal): 11.2 µM
GI50 (MOLT-4 leukemia): > 25 µM
TGI (MOLT-4 leukemia): > 25 µM
GI50 (NCI/ADR-RES ovarian): 8.11 µM
TGI (NCI/ADR-RES ovarian): > 25 µM
GI50 (SK-MEL-5 melanoma): 18.8 µM
TGI (SK-MEL-5 melanoma): > 25 µM
GI50 (SN12C renal): 6.74 µM
TGI (SN12C renal): > 19.6 µM
GI50 (HOP-62 NSCLC): 5.87 µM
TGI (HOP-62 NSCLC): 11.4 µM
GI50 (UACC-62 melanoma): 11.1 µM
TGI (UACC-62 melanoma): > 25 µM
GI50 (CCRF-CEM leukemia): > 25 µM
TGI (CCRF-CEM leukemia): > 25 µM
GI50 (RPMI-8226 leukemia): > 25 µM
TGI (RPMI-8226 leukemia): > 25 µM
GI50 (HCC-2998 colon): 20.3 µM
TGI (HCC-2998 colon): > 25 µM
GI50 (MALME-3M melanoma): 7.96 µM
TGI (MALME-3M melanoma): > 25 µM
GI50 (MCF7 breast): > 14.6 µM
TGI (MCF7 breast): > 25 µM
GI50 (UO-31 renal): 6.73 µM
TGI (UO-31 renal): > 16.4 µM
GI50 (UACC-257 melanoma): 16.4 µM
TGI (UACC-257 melanoma): > 25 µM
GI50 (HS 578T breast): 6.02 µM
TGI (HS 578T breast): 15.6 µM
GI50 (SNB-75 CNS): 5.05 µM
TGI (SNB-75 CNS): 12.4 µM
GI50 (SF-268 CNS): 8.46 µM
TGI (SF-268 CNS): > 22 µM
GI50 (ACHN renal): 7.54 µM
TGI (ACHN renal): > 20.3 µM
GI50 (SF-539 CNS): 12.5 µM
TGI (SF-539 CNS): > 25 µM
GI50 (PC-3 prostate): 9.86 µM
TGI (PC-3 prostate): > 25 µM
GI50 (A549 NSCLC): 4.94 µM
TGI (A549 NSCLC): 10.6 µM
GI50 (LOX IMVI melanoma): 9.44 µM
TGI (LOX IMVI melanoma): > 25 µM
GI50 (OVCAR-4 ovarian): 6.28 µM
TGI (OVCAR-4 ovarian): 13.5 µM
GI50 (SK-MEL-28 melanoma): 8.64 µM
TGI (SK-MEL-28 melanoma): > 25 µM
GI50 (HT29 colon): 12.9 µM
TGI (HT29 colon): > 25 µM
GI50 (HCT-15 colon): 14.9 µM
TGI (HCT-15 colon): > 25 µM
GI50 (MDA-MB-231 breast): 5.78 µM
TGI (MDA-MB-231 breast): 15.6 µM
GI50 (K-562 leukemia): > 25 µM
TGI (K-562 leukemia): > 25 µM
GI50 (RXF 393 renal): 5.57 µM
TGI (RXF 393 renal): 12.7 µM
GI50 (EKVX NSCLC): 10.2 µM
TGI (EKVX NSCLC): > 25 µM
GI50 (NCI-H522 lung): > 15.6 µM
TGI (NCI-H522 lung): > 25 µM
GI50 (TK-10 renal): 6.93 µM
TGI (TK-10 renal): 18.9 µM
GI50 (SNB-19 CNS): 12.3 µM
TGI (SNB-19 CNS): > 25 µM
GI50 (OVCAR-8 ovarian): 7.16 µM
TGI (OVCAR-8 ovarian): 18 µM
GI50 (BT-549 breast): 19.5 µM
TGI (BT-549 breast): > 25 µM
GI50 (OVCAR-5 ovarian): > 23.2 µM
TGI (OVCAR-5 ovarian): > 25 µM
GI50 (COLO 205 colon): 8.06 µM
TGI (COLO 205 colon): > 22 µM
GI50 (HL-60(TB) leukemia): > 25 µM
TGI (HL-60(TB) leukemia): > 25 µM
GI50 (M14 melanoma): 11.3 µM
TGI (M14 melanoma): > 25 µM
GI50 (SR leukemia): 13.6 µM
TGI (SR leukemia): > 25 µM
GI50 (DU-145 prostate): 9.01 µM
TGI (DU-145 prostate): > 24.1 µM
GI50 (HCT-116 colon): 5.76 µM
TGI (HCT-116 colon): 11.3 µM
GI50 (SK-OV-3 ovarian): 4.8 µM
TGI (SK-OV-3 ovarian): 9.14 µM
GI50 (CAKI-1 renal): 8.59 µM
TGI (CAKI-1 renal): 24.6 µM
GI50 (MDA-MB-435): 10.1 µM
TGI (MDA-MB-435): > 25 µM
GI50 (NCI-H23 lung): 11.3 µM
TGI (NCI-H23 lung): > 25 µM
GI50 (OVCAR-3 ovarian): 5.42 µM
TGI (OVCAR-3 ovarian): 10.1 µM
GI50 (SK-MEL-2 melanoma): 12.3 µM
TGI (SK-MEL-2 melanoma): > 25 µM
GI50 (SW-620 colon): 16.8 µM
TGI (SW-620 colon): > 25 µM
GI50 (786-0 renal): 7.31 µM
TGI (786-0 renal): 20.8 µM
GI50 (T-47D breast): 6.41 µM
TGI (T-47D breast): > 19.2 µM
GI50 (NCI-H226 lung): 9.16 µM
TGI (NCI-H226 lung): 24.5 µM
GI50 (KM12 colon): 14.7 µM
TGI (KM12 colon): > 25 µM
GI50 (IGROV1 ovarian): 13.9 µM
TGI (IGROV1 ovarian): > 25 µM
